Results as given in US11077100B2, “Tetrahydroquinoline derivatives as P2X7 receptor antagonists” (RaQualia Pharma Inc., priority 2017, dated 2021).
pIC50: −log10 of the molar value.

Target: human P2X7 (Homo sapiens (Human), UniProt Q99572)
Test: Human P2X7 functional assay (Ca2+ influx, Fluo-4, FDSS)
Type: cell-based
Settings: antagonistic activity with respect to the human P2X7 receptor; BzATP final concentration 80 microM
Protocol: The ability of the 5,6,7,8-tetrahydroquinoline and 6,7-dihydro-5H-cyclopenta[b]pyridine derivatives of the formula (I) to inhibit the P2X7 channel was measured by Ca^2+ influx assay and electrophysiology assay described below.
Human P2X7 Functional Assay
The functional activity of compounds was determined by measuring changes in intracellular calcium concentration using a Ca^2+-sensitive fluorescent dye, Fluo-4 (Molecular Probes). The changes in fluorescent signal were monitored by the cell imaging technology by Hamamatsu Photonics's Functional Drug Screening System (FDSS). Increases in intracellular Ca^2+ concentration were readily detected upon activation with BzATP.
HEK293 cells stably expressing human P2X7 (GenBank accession number BC011913) carrying a C-terminal FLAG tag were grown in T225 flasks, in a 5% CO2 humidified incubator to about 80% confluence. Media composition consisted of Dulbecco's Modified Eagle Medium (high glucose), 10% fetal bovine serum ([…]), 100 units/[…] Penicillin, 100 microg/mL Streptomycin and 250 microg/mL Geneticine.
1. Plate-out HEK293-human P2X7 cells (40 microL medium containing 10,000 cells per well) into poly-D-lysine coated 384-well plates (Corning) at 24 h prior to assay.
2. Incubate at 37° C. in 5% CO2.
3. Incubate the plate at 37° C. in 5% CO2 for 1 h.
5. Test compounds were prepared at 100× the test concentration in DMSO by serial dilution with Biomek-FX liquid handling instrument. 33× diluted compound solutions in assay buffer were prepared in intermediate compound plate with Biomek-NX liquid handling instrument. A further 3× dilution occurred in below steps 6 and 7.
6. Add 20 microL of 33× diluted compound solutions into each well and leave the plate for 10 min under the dark at room temperature.
7. Measure activity by FDSS as follows: • Set the assay plate on the stacker of FDSS. • Start the detection of fluorescence intensity at 540 nm by 480 nm exicitation. • After 30 seconds, add 20 microL of assay buffer containing 240 microM BzATP (final concentration 80 microM).
IC50 values for compounds of the present invention were determined from 7-point dose-response studies. Curves were generated using the average of duplicate wells for each data point. Finally, the IC50 values are calculated with the best-fit dose curve determined by XLfit (ID Business Solutions Ltd.).

Sequence of human P2X7 (Q99572 whole entry): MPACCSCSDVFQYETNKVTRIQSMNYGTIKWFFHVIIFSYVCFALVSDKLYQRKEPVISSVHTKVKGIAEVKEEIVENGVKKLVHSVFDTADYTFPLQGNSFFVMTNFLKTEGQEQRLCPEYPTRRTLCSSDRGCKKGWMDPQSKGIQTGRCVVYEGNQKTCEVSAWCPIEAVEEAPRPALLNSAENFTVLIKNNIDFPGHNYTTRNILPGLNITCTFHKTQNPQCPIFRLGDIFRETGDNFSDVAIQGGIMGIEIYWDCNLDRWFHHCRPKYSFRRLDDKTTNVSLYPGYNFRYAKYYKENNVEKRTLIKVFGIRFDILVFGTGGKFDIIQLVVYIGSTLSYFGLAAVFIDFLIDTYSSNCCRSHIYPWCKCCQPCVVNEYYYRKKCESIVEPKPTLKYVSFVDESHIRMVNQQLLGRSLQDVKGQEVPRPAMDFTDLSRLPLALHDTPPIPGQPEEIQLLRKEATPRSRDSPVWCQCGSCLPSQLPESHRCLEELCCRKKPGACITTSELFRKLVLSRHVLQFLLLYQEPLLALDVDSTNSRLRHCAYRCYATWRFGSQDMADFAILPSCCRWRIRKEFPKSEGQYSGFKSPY

Row | Structure (SMILES) | pIC50
1 | O=C(NCc1c(F)cc(Cl)cc1Cl)[C@@]1(F)CC[C@H](O)c2ncccc21 [Example 116, (5R,8S)-N-(2,4-dichloro-6-fluorobenzyl)-5-fluoro-8-hydroxy-5,6,7,8-tetrahydroquinoline-5-carboxamide] | 6.00 to 6.52
2 | O=C(NCc1cccc(Cl)c1Cl)[C@@]1(F)CC[C@H](O)c2ncccc21 [Example 120, (5R,8S)-N-(2,3-dichlorobenzyl)-5-fluoro-8-hydroxy-5,6,7,8-tetrahydroquinoline-5-carboxamide] | 5.52 to 6.00
3 | O=C(NCc1c(Cl)ccc(Cl)c1Cl)[C@]1(F)CC[C@@H](O)c2ncccc21 [Example 124, (5S,8R)-5-fluoro-8-hydroxy-N-(2,3,6-trichlorobenzyl)-5,6,7,8,- tetrahydroquinoline-5-carboxamide] | 6.52 to 7.00
4 | Cc1ccc(CNC(=O)[C@]2(F)CC[C@@H](O)c3ncccc32)c(Cl)c1 [Example 125, (5S,8R)-N-(2-chloro-4-methylbenzyl)-5-fluoro-8-hydroxy-5,6,7,8-hydroquinoline-5-carboxamide] | 6.52 to 7.00
5 | O=C(NCc1c(Cl)cccc1Cl)[C@@]1(F)CC[C@@H](O)c2ncccc21 [Example 138, (5R,8R)-N-(2,6-dichlorobenzyl)-5-fluoro-8-hydroxy-5,6,7,8-tetrahydroquinoline-5-carboxamide] | 6.52 to 7.00
6 | O=C(NCc1ccc(F)cc1F)[C@@]1(F)CC[C@@H](O)c2ncccc21 [Example 140, (5R,8R)-N-(2,4-difluorobenzyl)-5-fluoro-8-hydroxy-5,6,7,8-tetrahydroquinoline-5-carboxamide] | 6.00 to 6.52
7 | O=C(NCc1ccc(F)cc1C(F)(F)F)[C@@]1(F)CC[C@@H](O)c2ncccc21 [Example 143, (5R,8R)-5-fluoro-N-(4-fluoro-2-(trifluoromethyl)benzyl)-8-hydroxy-5,6,7,8-tetrahydroquinoline-5-carboxamide] | 6.00 to 6.52
8 | O=C(NCc1ccc(Cl)cc1F)[C@@]1(F)CC[C@@H](O)c2ncccc21 [Example 145, (5R,8R)-N-(4-chloro-2-fluorobenzyl)-5-fluoro-8-hydroxy-5,6,7,8-tetrahydroquinoline-5-carboxamide] | 6.52 to 7.00
9 | O=C(NCc1ccc(Cl)cc1C(F)(F)F)[C@@]1(F)CC[C@@H](O)c2ncccc21 [Example 156, (5R,8R)-N-(4-chloro-2-(trifluoromethyl)benzyl)-5-fluoro-8-hydroxy-5,6,7,8-tetrahydroquinoline-5-carboxamide] | 6.52 to 7.00
10 | Cc1cccc(Cl)c1CNC(=O)[C@@]1(F)CC[C@@H](O)c2ncccc21 [Example 160, (5R,8R)-N-(2-chloro-6-methylbenzyl)-5-fluoro-8-hydroxy-5,6,7,8-tetrahydroquinoline-5-carboxamide] | 6.52 to 7.00
11 | O=C(NCc1cc(F)c(F)cc1Cl)[C@@]1(F)CC[C@@H](O)c2ncccc21 [Example 162, (5R,8R)-N-(2-chloro-4,5-difluorobenzyl)-5-fluoro-8-hydroxy-5,6,7,8-tetrahydroquinoline-5-carboxamide] | 6.52 to 7.00
12 | O=C(NCc1c(Cl)ccc(Cl)c1Cl)[C@@]1(F)CC[C@@H](O)c2ncccc21 [Example 164, (5R,8R)-5-fluoro-8-hydroxy-N-(2,3,6-trichlorobenzyl)-5,6,7,8-tetrahydroquinoline-5-carboxamide] | 6.52 to 7.00
13 | Cc1ccc(CNC(=O)[C@@]2(F)CC[C@@H](O)c3ncccc32)c(Cl)c1 [Example 166, (5R,8R)-N-(2-chloro-4-methylbenzyl)-5-fluoro-8-hydroxy-5,6,7,8-tetrahydroquinoline-5-carboxamide] | 6.52 to 7.00
14 | O=C(NCc1ccc(OC(F)(F)F)cc1F)[C@]1(F)CC[C@H](O)c2ncccc21 [Example 207, (5S,8S)-5-fluoro-N-(2-fluoro-4-(trifluoromethoxy)benzyl)-8-hydroxy-5,6,7,8-tetrahydroquinoline-5-carboxamide] | 6.52 to 7.00
15 | O=C(NCc1cc(C(F)(F)F)ccc1Cl)[C@]1(F)CC[C@H](O)c2ncccc21 [Example 209, (5S,8S)-N-(2-chloro-5-(trifluoromethyl)benzyl)-5-fluoro-8-hydroxy-5,6,7,8-tetrahydroquinoline 5-carboxamide] | 6.52 to 7.00
16 | O=C(NCc1ccc(Cl)cc1)[C@]1(F)CC[C@H](O)c2ncccc21 [Example 210, (5S,8S)-N-(4-chlorobenzyl)-5-fluoro-8-hydroxy-5,6,7,8-tetrahydroquinoline-5-carboxamide] | 6.52 to 7.00
17 | COc1ccc(CNC(=O)[C@]2(F)CC[C@H](O)c3ncccc32)c(C(F)(F)F)c1 [Example 211, (5S,8S)-5-fluoro-8-hydroxy-N-(4-methoxy-2-(trifluoromethyl)benzyl)-5,6,7,8-tetrahydroquinoline-5-carboxamide] | 6.52 to 7.00
18 | O=C(NCc1cc(Cl)cc(Cl)c1)[C@]1(F)CC[C@H](O)c2ncccc21 [Example 212, (5S,8S)-N-(3,5-dichlorobenzyl)-5-fluoro-8-hydroxy-5,6,7,8-tetrahydroquinoline-5-carboxamide] | 6.52 to 7.00

Next, values leading:

Row | pIC50 | Structure (SMILES)
19 | > 7.30 | C[C@@H](NC(=O)[C@]1(F)CC[C@@H](O)c2ncccc21)c1ccc(Cl)cc1Cl [Example 119, (5S-8R)-N-((R)-1-(2,4-dichlorophenyl)ethyl)-5-fluoro-8-hydroxy-5,6,7,8-tetrahydroquinoline-5-carboxamide]
20 | 6.52 to 7.00 | O=C(NCc1cc(F)c(F)cc1Cl)[C@]1(F)CC[C@@H](O)c2ncccc21 [Example 123, (5S,8R)-N-(2-chloro-4,5-difluorobenzyl)-5-fluoro-8-hydroxy-5,6,7,8,- tetrahydroqunioline-5-carboxamide]
21 | > 7.30 | O=C(NCc1c(Cl)cc(C(F)(F)F)cc1Cl)[C@@]1(F)CC[C@@H](O)c2ncccc21 [Example 147, (5R,8R)-N-(2,6-dichloro-4-(trifluoromethyl)benzyl)-5-fluoro-8-hydroxy-5,6,7,8-tetrahydroquinoline-5-carboxamide]
22 | > 7.30 | O=C(NCc1c(F)cc(Cl)cc1Cl)[C@@]1(F)CC[C@@H](O)c2ncccc21 [Example 151, (5R,8R)-N-(2,4-dichloro-6-fluorobenzyl)-5-fluoro-8-hydroxy-5,6,7,8-tetrahydroquinoline-5-carboxamide]
23 | 7.00 to 7.30 | C[C@@H](NC(=O)[C@@]1(F)CC[C@@H](O)c2ncccc21)c1ccc(Cl)cc1Cl [Example 155, (5R,8R)-N-((R)-1-(2,4-dichlorophenyl)ethyl)-5-fluoro-8-hydroxy-5,6,7,8-tetrahydroquinoline-5-carboxamide]
24 | 7.00 to 7.30 | O=C(NCc1cc(Cl)ccc1Cl)[C@]1(F)CC[C@H](O)c2ncccc21 [Example 173, (5S,8S)-N-(2,5-dichlorobenzyl)-5-fluoro-8-hydroxy-5,6,7,8-tetrahydroquinoline-5-carboxamide]
25 | > 7.30 | O=C(NCc1ccc(F)c(Cl)c1)[C@]1(F)CC[C@H](O)c2ncccc21 [Example 188, (5S,8S)-N-(3-chloro-4-fluorobenzyl)-5-fluoro-8-hydroxy-5,6,7,8-tetrahydroquinoline-5-carboxamide]
26 | > 7.30 | O=C(NCc1ncc(C(F)(F)F)cc1Cl)[C@]1(F)CC[C@H](O)c2ncccc21 [Example 194, (5S,8S)-N-((3-chloro-5-(trifluoromethyl)pyridin-2-yl)methyl)-5-fluoro-8-hydroxy-5,6,7,8-tetrahydroquinoline-5-carboxamide]
27 | > 7.30 | O=C(NCc1ccc(Cl)c(Cl)c1)[C@]1(F)CC[C@H](O)c2ncccc21 [Example 197, (5S,8S)-N-(3,4-dichlorobenzyl)-5-fluoro-8-hydroxy-5,6,7,8-tetrahydroquinoline-5-carboxamide]
28 | > 7.30 | COc1cccc(Cl)c1CNC(=O)[C@]1(F)CC[C@H](O)c2ncccc21 [Example 198, (5S,8S)-N-(2-chloro-6-methoxybenzyl)-5-fluoro-8-hydroxy-5,6,7,8-tetrahydroquinoline-5-carboxamide]
29 | 7.00 to 7.30 | O=C(NCc1cc(F)c(F)c(F)c1)[C@]1(F)CC[C@H](O)c2ncccc21 [Example 200, (5S,8S)-5-fluoro-8-hydroxy-N-(3,4,5-trifluorobenzyl)-5,6,7,8-tetrahydroquinoline-5-carboxamide]
30 | 7.00 to 7.30 | O=C(NCc1ccc(F)c(F)c1)[C@]1(F)CC[C@H](O)c2ncccc21 [Example 202, (5S,8S)-N-(3,4-difluorobenzyl)-5-fluoro-8-hydroxy-5,6,7,8-tetrahydroquinoline-5-carboxamide]
31 | 7.00 to 7.30 | O=C(NCc1cc(F)ccc1Cl)[C@]1(F)CC[C@H](O)c2ncccc21 [Example 204, (5S,8S)-N-(2-chloro-5-fluorobenzyl)-5-fluoro-8-hydroxy-5,6,7,8-tetrahydroquinoline-5-carboxamide]
